SMILES strings stand for the structures.

Results on 60 compounds are retold here after US12502380B2, “MrgprX2 antagonists for the treatment of inflammatory disorders” (Dermira, Inc., priority 2019, dated 2025).

This test concerns the target T1, Human MrgprX2 (Homo sapiens, UniProt Q96LB1).
T1 construct: expressed in transfected cells
T1 sequence (Q96LB1 1-330): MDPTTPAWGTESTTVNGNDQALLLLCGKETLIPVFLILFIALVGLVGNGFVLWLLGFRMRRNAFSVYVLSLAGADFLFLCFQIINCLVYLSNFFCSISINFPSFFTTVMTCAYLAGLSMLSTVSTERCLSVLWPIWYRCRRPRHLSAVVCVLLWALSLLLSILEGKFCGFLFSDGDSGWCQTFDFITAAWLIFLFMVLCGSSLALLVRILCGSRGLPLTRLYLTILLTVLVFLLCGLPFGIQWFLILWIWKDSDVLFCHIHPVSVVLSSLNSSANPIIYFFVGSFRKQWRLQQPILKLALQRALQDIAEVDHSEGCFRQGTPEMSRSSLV
Put plainly: Human MrgprX2 antagonist FLIPR intracellular calcium mobilization assay. In kind it is cell-based. The note with it: antagonist activity, recombinant hMrgpMRGPRX2 expressing cells, read-out: Human MrgprX2 Antagonist pIC50 (converted). From the text: Potent and selective hMrgpMRGPRX2 compounds have been generated from compounds identified during a high throughput screening (HTS) campaign and followed up with cycles of structure activity based medicinal chemistry efforts. These compounds were characterized in recombinant hMrgpMRGPRX2 expressing cells for their antagonist activity and the potency was confirmed in the human mast cell line LAD-2, where the target is endogenously expressed. The assays used to determine potencies are functional read-out looking at intracellular calcium mobilization using the FLIPR™ technology. In these FLIPR assays, we test the identified compounds using recombinant cellular systems expressing mouse MrgprB2, mouse MrgprA1, gerbil MrgpMRGPRX2 orthologue, Chinese hamster MrgpMRGPRX2 orthologue and cynomolgus monkey MrgpMRGPRX2 orthologue, respectively for orthologue activity.
(In general: Calcium flux is commonly read through the fluorescence of an indicator in the cells.)
For the compound `C[C@@]1(C(=O)Nc2ncc(Cc3cccc(Cl)c3)s2)CCOC1` (single isomer, unassigned) [Compound E050, N-[5-[(3-chlorophenyl)methyl]thiazol-2-yl]-3-methyl-tetrahydrofuran-3-carboxamide], the IC50 was 63.1 nM.
Then `CCN(C[C@H](C)O)C(=O)Nc1nc(C)c(Oc2ccc(F)cc2)s1` [Compound E208], with 7.94 nM; and `CC(O)(C(=O)Nc1ncc(Cc2cccc(F)c2)s1)C(F)(F)F` (stereo not drawn) [Compound E025], with 200 nM; and `O=C(Nc1ncc(Cc2cccc(F)c2)s1)N1CCCC1CO` (stereo not drawn) [Compound E104], with 316 nM.
Regarding `C[C@@H](O)CN(C)C(=O)Nc1ncc(Oc2cccc(F)c2)s1` [Compound E150], the IC50 is 1.58 nM.
Consider `C[C@H](O)CN(C)C(=O)Nc1ncc(Oc2ccc(C#N)cc2F)s1` [Compound E189], for which the IC50 is 398 nM.
The result for `C[C@H](O)CN(C)C(=O)Nc1ncc(Oc2cccc(F)c2)s1` [Compound E152] reads 1.58 nM; that for `C[C@H](O)CN(C)C(=O)Nc1ncc(Oc2ccc(F)nc2)s1` [Compound E169], 251 nM.
Regarding `N#Cc1ccc(Oc2cnc(NC(=O)[C@H]3CCCN3S(N)(=O)=O)s2)cc1` [Compound E091, (2R)—N-[5-(4-cyanophenoxy)thiazol-2-yl]-1-sulfamoyl-pyrrolidine-2-carboxamide], the IC50 is 1580 nM.
The result for `CN(CC(O)C(F)(F)F)C(=O)Nc1ncc(Cc2cccc(F)c2)s1` (stereo not drawn) [Compound E105] reads 15.8 nM; that for `C[C@@]1(C(=O)Nc2ncc(Cc3cc(F)cc(F)c3)s2)CCOC1` (single isomer, unassigned) [Compound E052, N-[5-[(3,5-difluorophenyl)methyl]thiazol-2-yl]-3-methyl-tetrahydrofuran-3-carboxamide], 3.98 nM; that for `C[C@]1(C(=O)Nc2ncc(Oc3cccc(F)c3)s2)CCOC1` (single isomer, unassigned) [Compound E084, N-[5-(3-fluorophenoxy)thiazol-2-yl]-3-methyl-tetrahydrofuran-3-carboxamide], 3.16 nM.
The result for `CC(C)(C#N)C(=O)Nc1ncc(Cc2ccccc2F)s1` [Compound E012] reads 631 nM.
Then `CC(C)C(=O)Nc1ncc(Cc2cccc(F)c2F)s1` [Compound E094], with 7.94 nM.
For the compound `CC(C)(C(=O)Nc1ncc(Cc2ccccc2F)s1)N1CCOCC1` [Compound E003], the IC50 is 39.8 nM.
For `CC(O)CN(C)C(=O)Nc1ncc(Cc2ccccc2F)s1` (stereo not drawn) [Compound E099], the IC50 is 398 nM.
With `CCN(C[C@H](C)O)C(=O)Nc1ncc(Oc2ccnc(F)c2)s1` [Compound E185], the IC50 was 2 nM.
With `CCN(C[C@H](C)O)C(=O)Nc1ncc(Oc2ccc(Cl)nc2)s1` [Compound E202], the IC50 was 200 nM.
As to `C[C@H](O)CN(C)C(=O)Nc1ncc(Oc2ccc(C(F)(F)F)cc2)s1` [Compound E160], the IC50 was 2510 nM.
Regarding `C[C@H](O)CN(C)C(=O)Nc1ncc(Cc2c(F)cccc2F)s1` [Compound E142], the IC50 is 1580 nM.
Turning to `CC(C)C(=O)Nc1nc(-c2ccccc2)cs1` [Compound E039], the IC50 is 6310 nM.
The result for `CC1(C(=O)Nc2ncc(Cc3cccc(F)c3F)s2)CCOCC1` [Compound E095] reads 158 nM.
Regarding `CCN(C[C@H](C)O)C(=O)Nc1ncc(Oc2cccnc2F)s1` [Compound E203], the IC50 was 100 nM.
The result for `CN(C)C(C)(C)C(=O)Nc1ncc(Cc2ccccc2F)s1` [Compound E011] reads 501 nM; that for `C[C@@]1(C(=O)Nc2ncc(Cc3cccc(F)c3)s2)CCOC1` (single isomer, unassigned) [Compound E048, N-[5-[(3-fluorophenyl)methyl]thiazol-2-yl]-3-methyl-tetrahydrofuran-3-carboxamide], 126 nM; that for `CCN(C[C@@H](C)O)C(=O)Nc1ncc(Cc2cccc(F)c2)s1` [Compound E118], 25.1 nM.
In the case of `C[C@H](O)CN(C)C(=O)Nc1ncc(Cc2ccc(F)c(F)c2)s1` [Compound E135], the IC50 is 15.8 nM.
For the compound `CC(CO)N(C)C(=O)Nc1ncc(Cc2cccc(F)c2)s1` (stereo not drawn) [Compound E128], the IC50 is 31.6 nM.
With `CC(C)C(=O)Nc1ncc(Cc2ccc(F)cc2F)s1` [Compound E042], the IC50 was 39.8 nM.
In the case of `NS(=O)(=O)N1CCCC[C@@H]1C(=O)Nc1ncc(Cc2cccc(F)c2)s1` [Compound E066], the IC50 is 31.6 nM.
With `N#Cc1cc(F)cc(Oc2cnc(NC(=O)[C@H]3CCCN3S(N)(=O)=O)s2)c1` [Compound E090, (2R)—N-[5-(3-cyano-5-fluoro-phenoxy)thiazol-2-yl]-1-sulfamoyl-pyrrolidine-2-carboxamide], the IC50 was 31.6 nM.
For `CC(=O)N1CCC(C)(C(=O)Nc2ncc(Cc3ccccc3F)s2)CC1` [Compound E059, 1-acetyl-N-[5-[(2-fluorophenyl)methyl]thiazol-2-yl]-4-methyl-piperidine-4-carboxamide], the IC50 is 3160 nM.
The result for `CC(F)(F)C(=O)Nc1ncc(Cc2ccccc2F)s1` [Compound E022] reads 5010 nM; that for `CN(CC(=O)Nc1ncc(Cc2cccc(F)c2)s1)S(N)(=O)=O` [Compound E067], 10000 nM.
As to `C[C@H](O)CN(C)C(=O)Nc1ncc(Cc2cccc(Cl)c2)s1` [Compound E116], the IC50 is 31.6 nM.
For `CC(C)C(=O)Nc1ncc(Oc2ccccc2F)s1` [Compound E075], the IC50 was 31.6 nM.
For the compound `CC1(C(=O)Nc2ncc(Cc3cccc(F)c3)s2)CCC(=O)N1` (stereo not drawn) [Compound E032], the IC50 is 7940 nM.
On to `CCN(C[C@H](C)O)C(=O)Nc1cnc(Oc2cc(F)cc(F)c2)s1` [Compound E215], for which the IC50 is 7940 nM.
The result for `CC1(C(=O)Nc2ncc(Cc3ccccc3F)s2)CCN(S(N)(=O)=O)C1` (stereo not drawn) [Compound E064] reads 631 nM; that for `CC1(C(=O)Nc2ncc(Oc3ccc(F)cc3)s2)CCOCC1` [Compound E077], 39.8 nM.
On to `CC1(C(=O)Nc2ncc(Cc3ccc(F)c(F)c3)s2)CCOCC1` [Compound E045], for which the IC50 was 158 nM.
Then `CC(C)(C)OC(=O)N1CCC[C@@H]1C(=O)Nc1ncc(Oc2ccccc2)s1` [Compound E082, tert-butyl (2R)-2-[(5-phenoxythiazol-2-yl)carbamoyl]pyrrolidine-1-carboxylate], with 1260 nM.
For the compound `CCN(C[C@H](C)O)C(=O)Nc1ncc(Oc2ccc(F)nc2)s1` [Compound E170], the IC50 is 3.98 nM.
On to `C[C@@H](O)CN(C)C(=O)Nc1ncc(Cc2ccccc2F)s1` [Compound E103], for which the IC50 is 1260 nM.
For `CC1(C(=O)Nc2ncc(Cc3ccccc3F)s2)CCOC1` (stereo not drawn) [Compound E014], the IC50 was 631 nM.
For `CC(C)C(=O)Nc1ncc(N(C)c2ccccc2)s1` [Compound E073], the IC50 is 1580 nM.
`C[C@H](O)CN(C)C(=O)Nc1ncc(Cc2cc(F)cc(F)c2)s1` [Compound E134]: the IC50 is 1.58 nM.
The result for `CCN(C[C@H](C)O)C(=O)Nc1ncc(Cc2cccc(F)c2)s1` [Compound E117] reads 0.631 nM.
In the case of `CC(C)(CO)C(=O)Nc1ncc(Cc2ccccc2F)s1` [Compound E010], the IC50 is 1260 nM.
As to `C[C@@]1(C(=O)Nc2ncc(Oc3cccc(F)c3)s2)CCOC1` (single isomer, unassigned) [Compound E083, N-[5-(3-fluorophenoxy)thiazol-2-yl]-3-methyl-tetrahydrofuran-3-carboxamide], the IC50 was 3.98 nM.
Consider `CC(C)(C)OC(=O)N1CCC[C@@H]1C(=O)Nc1ncc(Cc2cccc(F)c2)s1` [Compound E035, tert-butyl (2R)-2-[[5-[(3-fluorophenyl)methyl]thiazol-2-yl]carbamoyl]pyrrolidine-1-carboxylate], for which the IC50 was 3160 nM.
Turning to `C[C@@H](O)CN(C)C(=O)Nc1ncc(Cc2cccc(F)c2)s1` [Compound E100], the IC50 was 251 nM.
For `NS(=O)(=O)N1CCC[C@@H]1C(=O)Nc1ncc(Cc2cccc(F)c2)s1` [Compound E057, (2R)—N-[5-[(3-fluorophenyl)methyl]thiazol-2-yl]-1-sulfamoyl-pyrrolidine-2-carboxamide], the IC50 was 31.6 nM.
In the case of `O=C(Nc1ncc(Cc2cccc(F)c2)s1)N1CC[C@H](CO)C1` [Compound E112], the IC50 was 794 nM.
As for `CC(C)C(=O)Nc1cnc(Cc2cccc(F)c2)s1` [Compound E216, N-[2-[(3-fluorophenyl)methyl]thiazol-5-yl]-2-methyl-propanamide], the IC50 was 7940 nM.
The result for `CC1(C(=O)Nc2ncc(Cc3ccc(F)cc3)s2)CCOCC1` [Compound E001, N-[5-[(4-fluorophenyl)methyl]thiazol-2-yl]-4-methyl-tetrahydropyran-4-carboxamide] reads 398 nM; that for `C[C@H](O)CN(C)C(=O)Nc1ncc(Oc2cc(F)ccc2C#N)s1` [Compound E195], 2000 nM.
In the case of `C[C@H](O)CN(C)C(=O)Nc1ncc(Oc2cncc(C#N)c2)s1` [Compound E172], the IC50 is 1580 nM.
Consider `C[C@H](O)CN(C)C(=O)Nc1ncc(Oc2cccc(F)c2C#N)s1` [Compound E200], for which the IC50 was 1580 nM.
Then `C[C@H](O)CN(C)C(=O)Nc1ncc(CC2CCCC2)s1` [Compound E138], with 2000 nM.
